Data on one compound can be found in publication PMC12973313 (Chemical Science, 2026).

Like-named read-outs stand apart in the source and are kept apart here. Bounds are passed on as bounds.

In one series the test system is Caco-2 cell monolayer. Put plainly: Bi-directional permeability in Caco-2 cell line. The class given is in vitro ADME. The text has this: (§1) Next, to gauge the suitability of SSAs for oral dosing, 9 was subjected to a Caco-2 permeability assay which is used to both predict human intestinal permeability and investigate drug efflux, predicting in vivo compound absorption. This assay allows assessment of a compound's ability to undergo transport from the apical to the basolateral (A–B) compartments of the cell monolayer and vice versa (B–A). […] This is likely to result in poor absorption when dosed orally and therefore further development would be necessary for these agents to become suitable for oral administration. […]
(§2) The ionspray voltage was 5500V.
(§3) Bi-directional Permeability in Caco-2 Cell Line:
(§4) The bi-directional permeability in Caco-2 cell lines was determined by seeding cells onto an HTS Transwell plate. Cells were cultivated for 14-18 days in a cell culture incubator at 37°C, 5% CO2, 95% relative humidity. Cell culture medium was replaced every other day. To assess monolayer integrity the transepithelial electrical resistance (TEER) across the monolayer was measured using Millicell Epithelial volt-ohm meter prior to assay and Lucifer yellow (LY) fluorescence measurement post-assay.
(§5) Test compound was prepared in DMSO and diluted in Hank’s Balanced Saline Solution (HBSS, pH 7.4) to a final concentration of 5 µM. Compound was added to the donor compartment of the transwell plate for both apical to basolateral (A>B) and basolateral to apical (B>A) measurements, with blank HBSS being added to the receiver compartment. The transwell plate was then incubated at 37°C, 5% CO2 for 2 hours.
(§6) Samples were taken at T=0 and T=2 hours determine the concentration of initial donor sample, and the concentration of receiver and donor wells post-incubation, respectively.
(§7) The samples were quenched with solvent containing internal standard (IS). The supernatant was mixed with an appropriate volume of ultra-pure water before LC-MS/MS analysis.
(§8) Samples were analysed using a Shimadzu Nexera LC Binary Gradient LC-30AD (Shimadzu Inc, Kyoto), coupled to a Sciex 6500+ (AB Inc., Illinois). Separation of compounds was achieved using a HALO 90Å biphenyl (2.7µm,2.1x50mm) (Advanced Materials Technology, Wilmington) column at a temperature of 40°C. A binary mobile phase gradient at a flow rate of 0.7 mL/min was used. Initial LC conditions comprised of 95% solvent A (0.1% formic acid in water) and 5% solvent B (0.1% formic acid in acetonitrile). This was ramped to 95% solvent B at 0.7 minutes, held for 0.5 minutes and then immediately returned to initial conditions. Sample analysis was by electrospray ionisation combined with multiple reaction monitoring in positive ion mode. The ion spray voltage was 5500V.
(§9) In vitro Absorption, Distribution and Metabolism results
(§10) Table S1 – Result from solubility assays performed in PBS pH 7.4 for SSA 9.
(§11) Table S2 – Summary of results from Caco-2 permeability assays for SSA 9. Papp is given as […]
(§12) cm/s. A = apical; B = basolateral. Recovery = % SSA recovered from the assay after 2 hours.
(§13) ID Papp (A-B) % Recovery Papp (B-A) % Recovery Efflux Ratio
(§14) Table S3 – Summary of results from human plasma protein binding assays for SSA 9. % Bound = % of SSA bound to the plasma proteins after 6 hours incubation at 37 °C. Low % […]
(§15) = > 99 %. % Recovery = % SSA recovered from the assay after 6 hours.
(§16) ID % Bound % Recovery % Stability
(§17) Table S4 – Summary of results from mouse, rat and human microsomal stability assays for SSA 9. The in vitro half-life (t1/2) and microsomal intrinsic clearance (CLint) were calculated from the elimination rate (k, the slope of the natural log of concentration verses time curve), assuming first order kinetics, using the formulae t1/2 = 0.693/-k and CLint = 0.693/t1/2 […]. This compound would be classed as a low clearance compound in all three species. […]

The nature of series [1]: Bi-directional permeability in Caco-2 cell line. In kind it is in vitro ADME. The note with it: human; for recovery at 2 h, 5 µM: Caco-2, pH 7.4, after 2 hours.
Description: as §1, §2, §3, §4, §5, §6, §7, §8, §9, §10, §11, §12, §13, §14, §15, §16, §17
For orientation: Caco-2 cells form a polarised layer with tight junctions and transporters.

The nature of series [2]: Metabolic stability in liver microsomes. The class given is in vitro ADME, human. As for the experimental part: Following this, the metabolic stability of 9 was determined against mouse, rat, and human liver microsomes. […] Within this assay the stability of the intact parent compound is monitored with respect to time, during incubation at 37 °C in the presence and absence of the co-factor NADPH – required for cytochrome p450 activity.
Metabolic Stability in Rat, Mouse and Human Liver Microsomes:
The metabolic stability of compounds at a concentration of 1 µM, in rat, mouse and human liver microsomes (BD Gentest, Franklin Lakes NJ) was measured following incubation with hepatic microsomes (0.5 mg of protein / mL) in the presence and absence of cofactor (NADPH) at 37 °C. Aliquots of each incubation were removed at 0.5, 5, 15, 30 and 60 minutes. […]
Samples were analysed using a Shimadzu Shimadzu Nexera LC Binary Gradient LC-30AD (Shimadzu Inc, Kyoto), coupled to a Sciex 5500 mass spectrometer (AB Inc., Illinois) for rat and mouse microsomes and a Sciex 6500+ for human microsomes. […]
The bi-directional permeability in Caco-2 cell lines was determined by seeding cells onto an HTS Transwell plate. […] To assess monolayer integrity the transepithelial electrical resistance (TEER) across the monolayer was measured using Millicell Epithelial volt-ohm meter prior to assay and Lucifer yellow (LY) fluorescence measurement post-assay. […]

The term Papp B→A denotes how fast a substance crosses the layer from the basolateral side. By efflux ratio is commonly meant a quotient of directional permeabilities that is used to spot active efflux. As usually defined, the Papp A→B is how fast a substance crosses the layer from the apical side. By microsomal CLint is commonly meant the rate of metabolic loss divided by the concentration. A lower microsomal CLint goes with slow turnover. For `O=C(Nc1ccc(C(F)(F)F)cc1)N[C@H](Cc1ccccc1)C(=O)O` [SSA 9], in the series on Caco-2 cell monolayer (5 µM, 2 hours, basolateral to apical), the “Papp (B-A)” value is recorded as 16.76 10-6 cm/s. Moreover, the “Efflux Ratio” value with Caco-2 cell monolayer (Caco-2) came out at 96.91. In addition, in the series on Caco-2 cell monolayer (after 2 hours), the “Recovery (%) AP-BL” value was 110.78% and the “Recovery (%) BL-AP” value is on record as 97.74%. This compound also yielded a basolateral-to-apical permeability (Papp B→A) at 2 h, 5 µM in series [1] (Caco-2, pH 7.4, 5 µM, 2 hours, basolateral to apical) of 16.8 ×10⁻⁶ cm/s. Moreover, in series [1] (Caco-2, pH 7.4, Caco-2), the efflux ratio at 2 h, 5 µM is 96.9. In addition, in series [1] (read-out: Recovery (%) AP-BL), the recovery at 2 h, 5 µM was 111%. In series [1] (read-out: Recovery (%) BL-AP), the recovery at 2 h, 5 µM came to 97.7%. Further, the Papp A→B at 2 h, 5 µM in series [1] (Caco-2, pH 7.4, 5 µM, 2 hours, apical to basolateral) came to 0.17 ×10⁻⁶ cm/s. The same compound returned a microsomal CLint at 1 µM in series [2] (human microsomes) of less than 7.5 µL/min/mg. Further, the half-life at 1 µM in series [2] (human, 1 µM, 0.5 mg protein/mL, read-out: In vitro t1/2) is greater than 3.08 h.
